Measured values taken from paper PMC10718076, “1,2-Disubstituted bicyclo[2.1.1]hexanes as saturated bioisosteres of ortho-substituted benzene” (Chemical Science, 2023).
Converted amounts (≈) assume the structure as drawn. Like-named read-outs stand apart in the source and are kept apart here.

Assays:
[1] = Metabolic stability in human liver microsomes; details: both, liver microsomes (pooled); for remaining at 40 min, 2 µM: Mean of 2, 40 min
[2] = Kinetic solubility in phosphate-buffered saline, pH 7.4; assay type: physicochemical; details: 25 °C, kinetic from dmso stock, phosphate-buffered saline; for solubility at 2 h: pH 7.4, aqueous buffer, Table S2, 2st batch
Procedure: Analysis of Aqueous Solubility […]
compound (Ondansetron) were assessed for kinetic solubility in phosphate -buffered saline, pH 7.4.
Phosphate buffered saline, pH 7.4 (Sigma -Aldrich, USA; Cat #P3813) […]
MultiScreen HTS 96 Well Filter Plates (Millipore, Ireland; Cat # MSSLBPC10) […]
Matrix Multichannel Electronic Pipette 2-125 μL, 5-250 μL, 15-1250 μL (Thermo Scientific, USA; […]
Vacuum pump (Millipore, USA; Model # XX5500000)
The measurements were performed using SpectraMax Plus reader in UV -Vis mode. Acquisition and […]
The measurements were performed using SpectraMax Paradigm reader in UV-Vis mode.
Acquisition and analysis of the data were performed using SoftMax Pro v.5.4 (Molecular Devices) […]
Kinetic solubility assay was performed according to the Enamine’s aqueous solubility SOP. Briefly, using a 20 mM stock solution of the compound in 100% DMSO dilutions were prepared to a theoretical concentration of 400 μM in duplicates in phosphate-buffered saline pH 7.4 […]
compound dilutions in PBS were further allowed to equilibrate at 25 °C on a thermostatic shaker for two hours and then filtered through HTS filter plates using a vacuum manifold. The filtrates of test compounds were diluted 2-fold with acetonitrile with 2% DMSO before measuring.
In parallel, compound dilutions in 50% acetonitrile/PBS were prepared to theoretical concentrations […]
calibration curves. Ondansetron was used as reference compound to control proper assay performance. 200 μl of each sample was transferred to 96-well plate and measured in 230-550 nm range with 5 nm step. The effective range of this assay is approximately 2-400 μM and the […]
The concentrations of compounds in PBS filtrate are calculated using a dedicated Microsoft Excel calculation script. Proper absorbance wavelengths for calculations are selected for each compound manually based on absorbance maximums (absolute absorbance unit values for the minimum and maximum concentration points within the 0 – 3 OD range). Each final dataset is visually evaluated by the operator, and goodness of fit (R2) is calculated for each calibration curve. […]
samples were diluted 2-fold with acetonitrile containing internal standard and were analyzed using the HPLC system coupled with a tandem mass spectrometer. The effective range of this assay is […]

[3] = tested on: Aspergillus niger (strain VURV-F 822); experiment: Antifungal disk diffusion method; assay type: cell-based; details: read-out: Diameter of inhibition zone
Procedure: Antifungal activity of the synthetic compounds using disk diffusion methods The compounds were tested for plant pathogens Aspergillus niger (strain VURV-F 822), which was received from Culture collection of microorganisms of Crop Research Institute (Prague, Czech […]
The synthetic compounds' antifungal activity was evaluated using a disk diffusion assay for testing filamentous fungi (CLSI M51-A) and broth microdilution antifungal susceptibility testing (EUCAST E.DEF 7.3.1; CLSI M38-A2)
[CLSI M51-A. Method for Antifungal Disk Diffusion Susceptibility Testing of Nondermatophyte Filamentous Fungi; Approved Guideline.CLSI document M51-A. Wayne, PA:
Clinical and Laboratory Standards Institute; 2010. This method is standardized for Altenaria, Aspergillus, Bipolaris, Fusarium, order Mucorales, etc.]
[CLSI M38-A2. 2008. Reference method for broth dilution antifungal susceptibility testing of filamentous fungi, 2nd ed Approved standard M38 -A2 Clinical and Laboratory Standards Institute, […]
Antifungal disk diffusion method
The solutions of fungicides and their analogues were diluted in dimethyl sulfoxide (DMSO) to […]
mg/mL for each test component. Sterile paper disks (ASPECT, Ukraine) were soaked with 10 μl of a solution of the appropriate fungicide from the highest concentration to the lowest.
The fungal strains were cultured on Petri dishes with Saburo dextrose agar (Condalab, Spain) and incubated at 25 °C for 5 days. Sterile Dulbecco's phosphate -buffered saline (DPBS) with 0,1 % Tween 20 was used to cover colonies of fungus for obtained conidia l suspension. Suspension of conidia was adjusted to inoculums 2×10^5 conidia/mL by sterile DPBS.
For antifungal disk diffusion test we used square Petri dishes (FALCON A Corning Brand, USA). The conidial suspension (0.5 mL) was added to Petri dishes with Saburo dextrose agar. The suspension was evenly distributed over the surface of the nutrient medium with a glass spatula.
After the surface of the inoculated medium was dry, the disks with different concentrations of testing compounds were added to the Petri dishes. Each compound was tested in triplicate at different concentrations. Growth control was a disk with 10 μl of DMSO, which was used for test […]
Petri dishes incubated at 25 °C for 72 h. The test compounds at known concentrati on into contact with an inoculated medium then exert a growth-inhibiting effect then a clear zone (the zone of […]
inhibition) appears around the test product. The diameter of a clear zone around the well is […]
If the fungal strain is susceptible to the antifungal agent, then a zone of inhibition appears on the agar plate. If it is resistant to the test compound, then no zone is evident. The size of the zone of inhibition is usually related to the level of antifungal activity present in the compound – a larger […]
The growth rate of all strains for each concentration of test compounds was determined visually and compared with the growth of control.
Broth microdilution antifungal susceptibility testing
A 96-well CELLSTAR plate (sterile, flat-bottomed, polystyrene, transparent) was used to determine MIC by broth microdilution method. Also, dabble straight RPMI-1640 medium with 2% glucose (2x RPMI 2%G) was used for this method. Spore suspension for plate inoculation was prepared according to the method described above for the disc diffusion method.
The each well in the plate contained 49 μl of medium (2x RPMI 2%G), 50 μl of inoculum (prepared in DPBS) and 1 μl of the stock solution of the test substance. Positive control wells contained 50 μl medium and 50 μl inoculum, and sterile control wells contained 50 μl medium and […]
To determine the MIC by the microdilution method, a series of stock solutions of fungicides and their analogues in DMSO with the following concentrations were prepared: 3.2 mg/mL, 1.6 mg/mL, […]
1 μl of the stock solutions of the test substances were added to each well to obtain the following […]
Immediately after adding all the components to the plates, the optical density was measured at […]

Cn1cc(C(=O)NC2CC3CC2(c2ccc(Cl)c(Cl)c2)C3)c(C(F)F)n1 (stereo not shown) [Compound 29]
microsomal CLint at 2 µM ([1]; pH 7.4): 35 µL/min/mg | remaining at 40 min, 2 µM ([1]; pH 7.4, % Remaining without cofactor, no NADPH cofactor, Table S6, 1st batch): 106% | remaining at […], 2 µM ([1]; pH 7.4, % Remaining, Mean of 2, 7 min, Table S6, 1st batch): 83% | remaining at […], 2 µM ([1]; pH 7.4, % Remaining, Mean of 2, 15 min, Table S6, 1st batch): 73% | remaining at 25 min, 2 µM ([1]; pH 7.4, % Remaining, Mean of 2, 25 min, Table S6, 1st batch): 67% | remaining at 40 min, 2 µM ([1]; pH 7.4, % Remaining, Table S6, 1st batch): 54% | k el at 2 µM ([1]; pH 7.4, kel, Table S6, 1st batch): 0.00025 s⁻¹ | half-life at 2 µM ([1]; pH 7.4, t1/2, Table S6, 1st batch): 47.4 min | solubility kinetic at 2 h ([2]; aqueous buffer, pH 7.4, read-out: Sol.: experimental kinetic solubility): 4 µM (≈ 1.6 µg/mL) | solubility at 2 h ([2]; read-out: PBS solubility, pH 7.4, Incubation 1): 4 µM (≈ 1.6 µg/mL) | solubility at 2 h ([2]; read-out: PBS solubility, pH 7.4, Incubation 2): 4 µM (≈ 1.6 µg/mL) | solubility at 2 h ([2]; read-out: PBS solubility, pH 7.4, Mean): 4 µM (≈ 1.6 µg/mL) | zone of inhibition at 4 µg/mL ([3]; Concentration 0.004 mg/mL, 0 = absence of antifungal activity, Boscalid, Fluxapyroxad, Bixafen marked st): 0 mm | zone of inhibition at 8 µg/mL ([3]; Concentration 0.008 mg/mL, 0 = absence of antifungal activity): 0 mm | zone of inhibition at 16 µg/mL ([3]; Concentration 0.016 mg/mL, 0 = absence of antifungal activity): 0 mm | zone of inhibition at 30 µg/mL ([3]; Concentration 0.03 mg/mL, 0 = absence of antifungal activity, (±)-29 marked st): 3.5 ± 0.5 mm | zone of inhibition at 60 µg/mL ([3]; Concentration 0.06 mg/mL, 0 = absence of antifungal activity, Fluxapyroxad, Bixafen, (±)-29 marked st): 6.5 ± 1 mm | zone of inhibition at 120 µg/mL ([3]; Concentration 0.12 mg/mL, (±)-28 marked st (static growth)): 8.75 ± 1.25 mm | zone of inhibition at 250 µg/mL ([3]; Concentration 0.25 mg/mL, (±)-28 marked st (static growth, secondary growth of mycelium)): 12 ± 0.5 mm | zone of inhibition at 500 µg/mL ([3]; Concentration 0.5 mg/mL, 10 μl per disk): 12.5 ± 1.5 mm | zone of inhibition at 1000 µg/mL ([3]; Concentration 1 mg/mL, 10 μl per disk): 16.2 ± 1.25 mm | zone of inhibition at 2000 µg/mL ([3]; Concentration 2 mg/mL, 10 μl per disk): 23.5 ± 2 mm | D (Table S5, injection 1, octanol/PBS pH 7.4): 1.26E+04 | D (Table S5, injection 2, octanol/PBS pH 7.4): 1.38E+04 | D (Table S5, injection 3, octanol/PBS pH 7.4): 1.92E+04
